# Data: patent US7560464B2, “Polycyclic pyrimidines as potassium ion channel modulators” (Icagen, Inc., priority 2004, dated 2009)
# Target: SK2 subtype channels (Rattus norvegicus, UniProt P70604)
# Assay: not given
# Conditions: patch clamp; cited from earlier work
row,Molecule,block of SK2 channel currents
1,CN(C)CCC=C1c2ccccc2CCc2ccccc21 [amitriptyline],block SK2 channel currents with micromolar affinity
2,NC(=O)N1c2ccccc2C=Cc2ccccc21 [carbamazepine],block SK2 channel currents with micromolar affinity
3,Nc1c2c(nc3ccccc13)CCCC2 [tacrine],block SK2 channel currents with micromolar affinity

# Target: T1, recombinant human SK4 (hIK1 or hKCa4) channels (Homo sapiens, UniProt O15554+P0DP23)
# T1 construct: host or cells: HEK 293
# Assay: not given
# Conditions: applied to the inside of SK4 channel-expressing membrane patches; cited from earlier work
row,Molecule,activation of SK4 channels
1,Barium,activated SK4 channels in a concentration-dependent manner
2,cadmium,activated SK4 channels in a concentration-dependent manner
3,calcium,activated SK4 channels in a concentration-dependent manner
4,cobalt,did not activate
5,iron,did not activate
6,lead,activated SK4 channels in a concentration-dependent manner
7,magnesium,did not activate
8,strontium,activated SK4 channels in a concentration-dependent manner
9,zinc,did not activate

# Target: hSK2 (Homo sapiens, UniProt Q9H2S1)
# Assay: Assay for compound activity towards hSK channels (86Rb+ efflux)
# Format: cell-based
# Conditions: 86Rb+ efflux stimulated with calcium ionophore; drug 0.01 to 30 μM in EBSS; read-out: hSK2 Inhibitory Activity
# Procedure: 20.1 Assay for Compound Activity Towards hSK Channels
# Cells expressing small conductance, calcium activated potassium channels, such as SK-like channels were loaded with ^86Rb^+ by culture in media containing ^86RbCl. Following loading, the culture media was removed and the cells were washed in EBSS to remove residual traces of ^86Rb^+. Cells were preincubated with the drug (0.01 to 30 μM in EBSS) and then ^86Rb^+ efflux was stimulated by exposing cells to EBSS solution supplemented with a calcium ionophore, such as ionomycin, in the continued presence of the drug. After a suitable efflux period, the EBSS/ionophore solution was removed from the cells and the ^86Rb^+ content was determined by Cherenkov counting (Wallac Trilux). Cells were then lysed with a SDS solution and the ^86Rb^+ content of the lysate was determined. Percent ^86Rb^+ efflux was calculated according to the following equation: (^86Rb^+ content in EBSS/(^86Rb^+ content in EBSS+^86Rb^+ content of the lysate))×100 20.2 Results
row,IC50,Molecule
1,5000 to 30000 nM,"FC(F)(F)c1ccc(Nc2cc(-c3ccccn3)nc(-c3ccccn3)n2)nc1 [(2,6-Di-pyridin-2-yl-pyrimidin-4-yl)-(5-trifluoromethyl-pyridin-2-yl)-amine]"
2,5000 to 30000 nM,"c1ccc(Nc2cc(-c3ccccn3)nc(-c3ccccn3)n2)nc1 [(2,6-Di-pyridin-2-yl-pyrimidin-4-yl)-pyridin-2-yl-amine]"
3,5000 to 30000 nM,FC(F)(F)c1ccc(Nc2nccc(-c3ccccn3)n2)nc1 [(4-Pyridin-2-yl-pyrimidin-2-yl)-(5-trifluoromethyl-pyridin-2-yl)-amine]
4,1000 to 5000 nM,Clc1ccc(Nc2ccnc(-c3ccccn3)n2)nc1 [(5-Chloro-pyridin-2-yl)-(2-pyridin-2-yl-pyrimidin-4-yl)-amine]
5,100 to 1000 nM,Clc1ccc(Nc2nccc(-c3ccccn3)n2)nc1 [(5-Chloro-pyridin-2-yl)-(4-pyridin-2-yl-pyrimidin-2-yl)-amine]
6,100 to 1000 nM,COc1cnc(-c2ccccn2)nc1Nc1ccc(Cl)cn1 [(5-Chloro-pyridin-2-yl)-(5-methoxy-2-pyridin-2-yl-pyrimidin-4-yl)-amine]
7,< 100 nM,COc1cnc(-c2ccccn2)nc1Nc1cc(C)ccn1 [(5-Methoxy-2-pyridin-2-yl-pyrimidin-4-yl)-(4-methyl-pyridin-2-yl)-amine]
8,100 to 1000 nM,COc1cnc(-c2ccccn2)nc1Nc1ccc(-c2ccccc2)cn1 [(5-Methoxy-2-pyridin-2-yl-pyrimidin-4-yl)-(5-phenyl-pyridin-2-yl)-amine]
9,< 100 nM,COc1cnc(-c2ccccn2)nc1Nc1ccc(-c2ccsc2)cn1 [(5-Methoxy-2-pyridin-2-yl-pyrimidin-4-yl)-(5-thiophen-3-yl-pyridin-2-yl)-amine]
10,100 to 1000 nM,COc1cnc(-c2ccccn2)nc1Nc1ccc(N2CCN(C)CC2)cn1 [(5-Methoxy-2-pyridin-2-yl-pyrimidin-4-yl)-[5-(4-methyl-piperazin-1-yl)-pyridin-2-yl]-amine]
11,100 to 1000 nM,COc1cnc(-c2ccccn2)nc1Nc1ccc(-c2ccc(C)o2)cn1 [(5-Methoxy-2-pyridin-2-yl-pyrimidin-4-yl)-[5-(5-methyl-furan-2-yl)-pyridin-2-yl]-amine]
12,100 to 1000 nM,COc1cnc(-c2ccccn2)nc1Nc1ccccn1 [(5-Methoxy-2-pyridin-2-yl-pyrimidin-4-yl)-pyridin-2-yl-amine]
13,< 100 nM,COc1ccc(Nc2nc(-c3ccccn3)ncc2OC)nc1 [(5-Methoxy-pyridin-2-yl)-(5-methoxy-2-pyridin-2-yl-pyrimidin-4-yl)-amine]
14,100 to 1000 nM,c1ccc(-c2ccc(Nc3nccc(-c4ccccn4)n3)nc2)cc1 [(5-Phenyl-pyridin-2-yl)-(4-pyridin-2-yl-pyrimidin-2-yl)-amine]
15,100 to 1000 nM,"COc1cnc(-c2ccccn2)nc1Nc1ccc(N(C)C)cn1 [N^2-(5-Methoxy-2-pyridin-2-yl-pyrimidin-4-yl)-N5,N5-dimethyl-pyridine-2,5-diamine]"
16,< 100 nM,c1ccc(Nc2nccc(-c3ccccn3)n2)nc1 [Pyridin-2-yl-(4-pyridin-2-yl-pyrimidin-2-yl)-amine]

# The remaining lines, values behind:
row,Molecule,IC50
1,COc1cnc(-c2ccccn2)nc1Nc1ccc(N2CCCC2=O)cn1 [1-[6-(5-Methoxy-2-pyridin-2-yl-pyrimidin-4-ylamino)-pyridin-3-yl]-pyrrolidin-2-one],< 100 nM
2,"Clc1cc(-c2ccccn2)nc(-c2ccccn2)n1 [4-Chloro-2,6-di-pyridin-2-yl-pyrimidine]",1000 to 5000 nM
3,Cc1ccnc(Nc2nccc(-c3ccccn3)n2)c1 [(4-Methyl-pyridin-2-yl)-(4-pyridin-2-yl-pyrimidin-2-yl)-amine],< 100 nM
4,COc1cnc(-c2ccccn2)nc1Nc1ccc(Br)cn1 [(5-Bromo-pyridin-2-yl)-(5-methoxy-2-pyridin-2-yl-pyrimidin-4-yl)-amine],5000 to 30000 nM
5,Cc1nc(-c2ccccn2)nc(Nc2ccc(C(F)(F)F)cn2)c1Cl [(5-Chloro-6-methyl-2-pyridin-2-yl-pyrimidin-4-yl)-(5-trifluoromethyl-pyridin-2-yl)-amine],5000 to 30000 nM
6,COc1cnc(-c2ccccn2)nc1Nc1ccc(F)cn1 [(5-Fluoro-pyridin-2-yl)-(5-methoxy-2-pyridin-2-yl-pyrimidin-4-yl)-amine],100 to 1000 nM
7,"COc1cnc(-c2ccccn2)nc1Nc1ccc(N2CCC(C)CC2)cn1 [(5-Methoxy-2-pyridin-2-yl-pyrimidin-4-yl)-(4-methyl-3,4,5,6-tetrahydro-2H-[1,3′]bipyridinyl-6′-yl)-amine]",< 100 nM
8,COc1cnc(-c2ccccn2)nc1Nc1ccc([N+](=O)[O-])cn1 [(5-Methoxy-2-pyridin-2-yl-pyrimidin-4-yl)-(5-nitro-pyridin-2-yl)-amine],5000 to 30000 nM
9,COc1cnc(-c2ccccn2)nc1Nc1ccc(N2CCCC2)cn1 [(5-Methoxy-2-pyridin-2-yl-pyrimidin-4-yl)-(5-pyrrolidin-1-yl-pyridin-2-yl)-amine],< 100 nM
10,COc1cnc(-c2ccccn2)nc1Nc1ccc(-c2cccs2)cn1 [(5-Methoxy-2-pyridin-2-yl-pyrimidin-4-yl)-(5-thiophen-2-yl-pyridin-2-yl)-amine],< 100 nM
11,COc1cnc(-c2ccccn2)nc1Nc1ccc(C(F)(F)F)cn1 [(5-Methoxy-2-pyridin-2-yl-pyrimidin-4-yl)-(5-trifluoromethyl-pyridin-2-yl)-amine],5000 to 30000 nM
12,Cc1cc(Nc2ccccn2)nc(-c2ccccn2)n1 [(6-methyl-2-pyridin-2-yl-pyrimidin-4-yl)-pyridin-2-yl-amine],5000 to 30000 nM
13,CN(c1ccccn1)c1nccc(-c2ccccn2)n1 [Methyl-pyridin-2-yl-(4-pyridin-2-yl-pyrimidin-2-yl)-amine],5000 to 30000 nM
14,COc1cnc(-c2ccccn2)nc1NNc1ccccn1 [N-(5-Methoxy-2-pyridin-2-yl-pyrimidin-4-yl)-N′-pyridin-2-yl-hydrazine],5000 to 30000 nM
15,"COc1cnc(-c2ccccn2)nc1Nc1ccc(N)cn1 [N^2-(5-Methoxy-2-pyridin-2-yl-pyrimidin-4-yl)-pyridine-2,5-diamine]",< 100 nM
16,c1ccc(Nc2nc(-c3ccccn3)nc3ccccc23)nc1 [Pyridin-2-yl-(2-pyridin-2-yl-quinazolin-4-yl)-amine],100 to 1000 nM
17,c1ccc(Nc2nc(-c3ccccn3)c3ccccc3n2)nc1 [Pyridin-2-yl-(4-pyridin-2-yl-quinazolin-2-yl)-amine],5000 to 30000 nM
18,Cc1cccc(-c2nccc(Nc3ccccn3)n2)n1 [[2-(6-methyl-pyridin-2-yl)-pyrimidin-4-yl]-pyridin-2-yl-amine],1000 to 5000 nM
19,Cc1cccc(-c2ccnc(Nc3ccccn3)n2)n1 [[4-(6-methyl-pyridin-2-yl)-pyrimidin-2-yl]-pyridin-2-yl-amine],1000 to 5000 nM
20,COc1cnc(-c2ccccn2)nc1Nc1ccc(-c2cccc(F)c2)cn1 [[5-(3-Fluoro-phenyl)-pyridin-2-yl]-(5-methoxy-2-pyridin-2-yl-pyrimidin-4-yl)-amine],100 to 1000 nM
